ChEMBL document CHEMBL3244157, “Synthesis and antiinflammatory evaluation of substituted isophthalonitriles, trimesonitriles, benzonitriles, and terephthalonitriles” (J Med Chem, 1978)

Columns and labels:
Rattus norvegicus [1] = assay: Antiinflammatory activity in Long Evans rat assessed as reduction of carrageenan-induced pedal edema at 25 mg/kg, po administered 1 hr prior to carrageenan challenge measured after 3 hrs relative to control; assay type: functional; parameters: scale not given: the % may be the effect or the level left
[2] = Toxicity in mouse assessed as overt effects; assay type: organism-based; details: in vivo
Rattus norvegicus [3] = assay: Antiinflammatory activity in Long Evans rat assessed as reduction of carrageenan-induced pedal edema at 20 mg/kg, po administered 1 hr prior to carrageenan challenge measured after 3 hrs relative to control; assay type: functional; parameters: scale not given: the % may be the effect or the level left

| Structure (SMILES) | Activity (Rattus norvegicus [1]) [%] | LD50 [2] [mg/kg] | Activity (Rattus norvegicus [3]) [%] |
| --- | --- | --- | --- |
| Cc1c(Cl)cccc1Nc1c(C#N)c(Cl)c(C#N)c(Cl)c1C#N | 8 | 42 | – |
| N#Cc1c(Cl)c(C#N)c(Cl)c(C#N)c1Cl | – | 24 | 0 |
